Data: patent EP4778922A1, “BICYCLIC COMPOUND, AND PREPARATION METHOD THEREFOR AND PHARMACEUTICAL USE THEREOF” (Shanghai Jeyou Pharmaceutical Co., Ltd., priority 2023, dated 2025)
Read-outs that look alike come from different tables or passages of the source.

Columns and labels:
[1] = Mouse pharmacokinetic test; format: in vivo, ICR mice; conditions: plasma; for bioavailability: PO-30mpk vs IV-0.5mpk; for Tmax: read-out: Tmax
In short: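 Male naive ICR mice (25–30 g, n=3 per route) received a single intravenous or oral dose, with feeding resumed 4 h post-dose. Blood was centrifuged at 4°C, and plasma was stored at -80°C until analysis.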

[2] = tested on: 22RV1 cells; test: Cell proliferation inhibition assay in 22RV1 cells (CellTiter-Glo, 7 days); format: cell-based, human; conditions: Homo sapiens, 22Rv1, 168 h
In short: (§1)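 LNCaP and 22RV1 human prostate cancer cells, 3000 per well, exposed to graded compound for 7 days at 37°C, 5% CO2; LNCaP got 0.2 nM DHT 1 h after compound. Viability by CellTiter-Glo luminescence; IC50 from four-parameter variable-slope fit.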

[3] = target: T1, CYP3A4 (testosterone/midazolam) (Homo sapiens, UniProt P08684); test: CYP inhibition assay in human liver microsomes; format: in vitro ADME
T1 construct: co-incubated with human liver microsomes; from tissue; host or cells: human liver microsomes
Procedure: (§2) Test Example 3: CYP Inhibition Assay
(§3) An in vitro assay system was used to evaluate the effects of the compounds on the activities of several human liver microsomal cytochrome P450 (CYP) isozymes (CYP1A2, CYP2C9, CYP2D6, CYP3A4 (testosterone/midazolam), CYP2C19, and CYP2C8). Specific probe substrates for CYP450 isozymes were co-incubated with human liver microsomes and the compound at various concentrations (0, 0.0300, 0.100, 0.300, 1.00, 3.00, 10.0 µM). The reaction was initiated by adding the coenzyme NADPH. After the reaction was completed, the samples were processed, and the metabolites generated from the probe substrates were detected by liquid chromatography-tandem mass spectrometry (LC-MS/MS). Based on the resulting dose-response curves, the IC50 values of the test compounds for the probe substrate reactions catalyzed by each CYP isozyme were calculated.

[4] = target: T2, CYP2C9 (Homo sapiens, UniProt P11712); test: CYP inhibition assay in human liver microsomes; format: in vitro ADME; conditions: human liver microsomes, NADPH; read-out: CYPs 2C9 (IC50)
T2 construct: co-incubated with human liver microsomes; from tissue; host or cells: human liver microsomes
Procedure: as §2, §3

[5] = target: T3, CYP2C19 (Homo sapiens, UniProt P33261); test: CYP inhibition assay in human liver microsomes; format: in vitro ADME; conditions: human liver microsomes, NADPH; read-out: CYPs 2C19 (IC50)
T3 construct: co-incubated with human liver microsomes; from tissue; host or cells: human liver microsomes
Procedure: as §2, §3

[6] = target: T4, CYP2C8 (Homo sapiens, UniProt P10632); test: CYP inhibition assay in human liver microsomes; format: in vitro ADME; conditions: human liver microsomes, NADPH; read-out: CYPs 2C8 (IC50)
T4 construct: co-incubated with human liver microsomes; from tissue; host or cells: human liver microsomes
T4 sequence (P10632 1-490): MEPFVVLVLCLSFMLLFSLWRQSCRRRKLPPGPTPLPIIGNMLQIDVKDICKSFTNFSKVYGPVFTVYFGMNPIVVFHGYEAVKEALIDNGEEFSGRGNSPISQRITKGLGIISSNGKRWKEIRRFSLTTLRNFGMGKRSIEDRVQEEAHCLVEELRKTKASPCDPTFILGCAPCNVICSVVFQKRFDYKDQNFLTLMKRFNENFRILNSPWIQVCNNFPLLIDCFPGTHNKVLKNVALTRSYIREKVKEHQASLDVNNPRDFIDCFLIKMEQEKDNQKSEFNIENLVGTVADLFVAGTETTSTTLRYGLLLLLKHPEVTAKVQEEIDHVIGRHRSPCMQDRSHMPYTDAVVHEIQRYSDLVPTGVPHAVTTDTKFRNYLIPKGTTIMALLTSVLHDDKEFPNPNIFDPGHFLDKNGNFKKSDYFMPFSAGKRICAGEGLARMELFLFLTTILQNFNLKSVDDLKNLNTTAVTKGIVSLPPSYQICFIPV
Procedure: as §2, §3

[7] = tested on: LNCaP cells; test: Cell proliferation inhibition assay in LNCaP cells (0.2 nM DHT, CellTiter-Glo, 7 days); format: cell-based, human; conditions: Homo sapiens, LNCaP, 168 h
In short: as §1

[8] = probe substrate midazolam, read-out: CYPs 3A4 (Midazolam) (IC50)
[9] = probe substrate testosterone, read-out: CYPs 3A4 (Testosterone) (IC50)

T1 sequence (P08684 whole entry): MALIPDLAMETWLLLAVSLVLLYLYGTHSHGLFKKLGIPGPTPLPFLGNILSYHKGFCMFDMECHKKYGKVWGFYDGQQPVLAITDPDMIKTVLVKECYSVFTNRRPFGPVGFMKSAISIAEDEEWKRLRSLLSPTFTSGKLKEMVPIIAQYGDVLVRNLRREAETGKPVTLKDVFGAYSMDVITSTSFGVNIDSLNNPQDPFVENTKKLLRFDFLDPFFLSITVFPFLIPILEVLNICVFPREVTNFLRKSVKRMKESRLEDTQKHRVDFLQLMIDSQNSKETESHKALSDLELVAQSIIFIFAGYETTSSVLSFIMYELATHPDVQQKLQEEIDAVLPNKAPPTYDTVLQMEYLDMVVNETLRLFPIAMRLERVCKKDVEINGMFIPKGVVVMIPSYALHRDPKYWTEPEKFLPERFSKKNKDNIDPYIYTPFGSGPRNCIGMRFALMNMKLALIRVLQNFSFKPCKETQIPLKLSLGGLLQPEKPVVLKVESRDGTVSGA
T3 sequence (P33261 whole entry): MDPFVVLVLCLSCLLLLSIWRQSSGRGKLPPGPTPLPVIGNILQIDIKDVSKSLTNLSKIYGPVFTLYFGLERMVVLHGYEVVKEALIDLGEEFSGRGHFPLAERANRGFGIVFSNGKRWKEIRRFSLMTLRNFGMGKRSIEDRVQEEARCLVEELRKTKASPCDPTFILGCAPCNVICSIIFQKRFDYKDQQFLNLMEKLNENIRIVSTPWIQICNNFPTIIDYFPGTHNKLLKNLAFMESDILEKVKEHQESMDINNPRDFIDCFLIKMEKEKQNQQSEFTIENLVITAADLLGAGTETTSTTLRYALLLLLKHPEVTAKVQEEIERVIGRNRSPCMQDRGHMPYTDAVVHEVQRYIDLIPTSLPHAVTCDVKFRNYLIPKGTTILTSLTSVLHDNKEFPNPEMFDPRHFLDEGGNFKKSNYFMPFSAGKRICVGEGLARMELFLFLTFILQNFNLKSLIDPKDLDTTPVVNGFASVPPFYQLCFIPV
T2 sequence (P11712 whole entry): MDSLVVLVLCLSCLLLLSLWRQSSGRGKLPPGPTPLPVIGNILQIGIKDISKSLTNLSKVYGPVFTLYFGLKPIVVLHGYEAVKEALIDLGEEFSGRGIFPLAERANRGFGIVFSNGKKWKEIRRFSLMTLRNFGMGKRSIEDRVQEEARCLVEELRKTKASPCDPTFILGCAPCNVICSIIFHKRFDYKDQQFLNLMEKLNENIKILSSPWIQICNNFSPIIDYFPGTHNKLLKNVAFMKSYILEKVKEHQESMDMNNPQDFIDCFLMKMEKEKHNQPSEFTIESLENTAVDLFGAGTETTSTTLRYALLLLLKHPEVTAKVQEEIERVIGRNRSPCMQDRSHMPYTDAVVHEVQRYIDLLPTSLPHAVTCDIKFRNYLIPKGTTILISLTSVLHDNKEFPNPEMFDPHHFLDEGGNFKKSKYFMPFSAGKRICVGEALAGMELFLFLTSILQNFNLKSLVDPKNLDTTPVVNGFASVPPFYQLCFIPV

| SMILES | C0 ([1]; 0.5 mg/kg, IV-0.5mpk) | clearance ([1]; 0.5 mg/kg, IV-0.5mpk) | bioavailability ([1]; 30 mg/kg) | AUC(0-inf) ([1]; iv, 0.5 mg/kg, IV-0.5mpk) | half-life ([1]; iv, 0.5 mg/kg, IV-0.5mpk) | AUC(0-inf) ([1]; po, 30 mg/kg, PO-30mpk) | Cmax ([1]; po, 30 mg/kg, PO-30mpk) | half-life ([1]; po, 30 mg/kg, PO-30mpk) | Tmax ([1]; po, 30 mg/kg, PO-30mpk) | IC50 [2] | IC50 [3, 8] | IC50 [3, 9] | IC50 [4] | IC50 [5] | IC50 [6] | IC50 [7] |
| --- | --- | --- | --- | --- | --- | --- | --- | --- | --- | --- | --- | --- | --- | --- | --- | --- |
| CC(C)(c1ccc(-c2ccc(OCc3ccnc(N4CC(S(C)(=O)=O)C4)n3)cc2)cc1)c1cc(Cl)c(OCCCl)c(C#N)c1 [Compound 53] | 2100 ng/mL | 0.59 mL/min/kg | 68.4% | 10.2 µg·h/mL | 33.6 h | 421 µg·h/mL | 13200 ng/mL | 28.1 h | 4 h | 0.28 µM | > 10 µM | > 10 µM | > 10 µM | > 10 µM | > 10 µM |  |
| CC(C)(c1ccc(-c2ccc(OCc3ccnc(N4CC5(CC(P(C)(C)=O)C5)C4)n3)cc2)cc1)c1cc(Cl)c(OCCCl)c(C#N)c1 [Compound 61] |  |  |  |  |  | 242 µg·h/mL | 15600 ng/mL | 7.6 h | 6 h | 0.38 µM | > 10 µM | > 10 µM | > 10 µM | > 10 µM | > 10 µM |  |
| CC(C)(c1ccc(-c2ccc(OCc3ccnc(N4CC(S(C)(=O)=O)C4)n3)cn2)cc1)c1cc(Cl)c(OCCCl)c(C#N)c1 [Compound 85] | 3110 ng/mL | 0.63 mL/min/kg | 58.3% | 13.7 µg·h/mL | 6.12 h | 480 µg·h/mL | 43000 ng/mL | 8.9 h | 2 h | 0.34 µM | > 10 µM | > 10 µM | 6.5 µM | > 10 µM | > 10 µM | 0.33 µM |
| CC(C)(c1ccc(-c2ccc(OCc3ccnc(N4CCC(S(C)(=O)=O)CC4)n3)cc2)cc1)c1cc(Cl)c(OCCCl)c(C#N)c1 [Compound 94] |  |  |  |  |  |  |  |  |  | 0.49 µM | > 10 µM | > 10 µM | > 10 µM | > 10 µM | > 10 µM | 0.79 µM |
| CC(C)(c1ccc(-c2ccc(C#Cc3cnc(P(C)(C)=O)nc3)cc2)cc1)c1cc(Cl)c(OCCCl)c(C#N)c1 [Compound 109] | 1580 ng/mL | 0.56 mL/min/kg | 93.6% | 15.5 µg·h/mL | 13.8 h | 870 µg·h/mL | 29200 ng/mL | 27.1 h | 4 h | 0.12 µM | > 10 µM | > 10 µM | > 10 µM | > 10 µM | 8.8 µM | 0.57 µM |
| CC(C)(c1ccc(-c2ccc(OCc3ccc(-c4cnc(P(C)(C)=O)nc4)cc3)cc2)cc1)c1cc(Cl)c(OCCCl)c(C#N)c1 [Compound 136] | 3730 ng/mL | 0.49 mL/min/kg | 23.5% | 17.1 µg·h/mL | 14.6 h | 242 µg·h/mL | 10100 ng/mL | 16.6 h | 7 h | 0.23 µM | > 10 µM | > 10 µM | > 10 µM | > 10 µM | > 10 µM | 0.52 µM |
| CC(C)(c1ccc(-c2ccc(OCc3ccnc(N4CC5(CCS5(=O)=O)C4)n3)cc2)cc1)c1cc(Cl)c(OCCCl)c(C#N)c1 [Compound 176] |  |  |  |  |  | 407 µg·h/mL | 21300 ng/mL | 19.6 h | 4 h | 0.39 µM | > 10 µM | > 10 µM | > 10 µM | > 10 µM | > 10 µM |  |
| CC(C)(c1ccc(-c2ccc(OCc3ccnc(N4CC5(CCS(=O)(=O)CC5)C4)n3)cc2)cc1)c1cc(Cl)c(OCCCl)c(C#N)c1 [Compound 177] |  |  |  |  |  | 558 µg·h/mL | 17800 ng/mL | 33.7 h | 6 h | 0.21 µM | > 10 µM | > 10 µM | > 10 µM | > 10 µM | > 10 µM |  |
| CC(C)(c1ccc(-c2ccc(OCc3ccnc(N4CC(S(C)(=O)=O)C4)n3)nc2)cc1)c1cc(Cl)c(OCCCl)c(C#N)c1 [Compound 207] | 1620 ng/mL | 1.1 mL/min/kg | 97.7% | 7.61 µg·h/mL | 16.1 h | 446 µg·h/mL | 33900 ng/mL | 9.8 h | 3 h | 0.34 µM | > 10 µM | > 10 µM | > 10 µM | > 10 µM | > 10 µM |  |
